The values that follow come from US8846947B2, “Benzimidazoles and related analogs as sirtuin modulators” (GlaxoSmithKline LLC, priority 2008, dated 2014).

This assay deals with T1, SIRT1 (Homo sapiens, UniProt Q96EB6).
T1 sequence (Q96EB6 1-747): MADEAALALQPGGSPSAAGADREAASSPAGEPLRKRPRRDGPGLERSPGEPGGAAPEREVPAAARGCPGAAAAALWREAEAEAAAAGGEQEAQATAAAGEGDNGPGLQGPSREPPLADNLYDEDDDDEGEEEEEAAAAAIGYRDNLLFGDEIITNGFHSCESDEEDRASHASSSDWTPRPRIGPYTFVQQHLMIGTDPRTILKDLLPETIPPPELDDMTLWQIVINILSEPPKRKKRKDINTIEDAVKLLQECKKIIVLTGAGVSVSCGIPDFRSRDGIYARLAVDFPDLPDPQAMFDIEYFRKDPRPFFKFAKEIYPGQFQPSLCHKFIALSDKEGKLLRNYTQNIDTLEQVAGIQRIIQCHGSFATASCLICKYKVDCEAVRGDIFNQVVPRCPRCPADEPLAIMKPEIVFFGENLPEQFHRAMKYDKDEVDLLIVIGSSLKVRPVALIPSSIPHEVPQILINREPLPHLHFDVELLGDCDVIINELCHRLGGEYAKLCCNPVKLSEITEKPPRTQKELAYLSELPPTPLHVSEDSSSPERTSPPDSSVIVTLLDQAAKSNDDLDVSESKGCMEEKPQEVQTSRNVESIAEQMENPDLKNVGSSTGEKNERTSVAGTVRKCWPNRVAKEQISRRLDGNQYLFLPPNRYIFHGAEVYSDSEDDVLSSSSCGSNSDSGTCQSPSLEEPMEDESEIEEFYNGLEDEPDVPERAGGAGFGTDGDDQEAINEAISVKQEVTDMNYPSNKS
The assay can be described thus: Mass spectrometry based SIRT1 deacetylase activation assay (acetylated p53-derived peptide substrate). The class given is biochemical.
Regarding `Cc1cnc(NC(=O)c2cccc3[nH]c(-c4ccc(F)cc4C(F)(F)F)nc23)s1` [Compound 357], the EC1.5 entry is “A (EC1.5<1.0 uM)” and the “Fold Act. (percent maximum fold activation)” value was “A (Fold activation >200%)”.
For `Cc1nc(NC(=O)c2cccc3[nH]c(-c4ccc(F)cc4C(F)(F)F)nc23)sc1C` [Compound 358], in that order: “A (EC1.5<1.0 uM)” and “A (Fold activation >200%)”.
For `Cc1cc(C)nc(NC(=O)c2cccc3[nH]c(-c4ccc(F)cc4C(F)(F)F)nc23)c1` [Compound 359], the EC1.5 result is given as “A (EC1.5<1.0 uM)” and the “Fold Act. (percent maximum fold activation)” value is on record as “A (Fold activation >200%)”.
The like results for `O=C(Nc1nccs1)c1cccc2[nH]c(-c3cccc(-c4nnn[nH]4)c3)nc12` [Compound 360] were, in that order, “A (EC1.5<1.0 uM)” and “A (Fold activation >200%)”.
For `O=C(Nc1ccccn1)c1cccc2[nH]c(-c3cccc(-c4nnn[nH]4)c3)nc12` [Compound 361], the EC1.5 result is recorded as “A (EC1.5<1.0 uM)” and the “Fold Act. (percent maximum fold activation)” value is listed as “A (Fold activation >200%)”.
Turning to `O=C(Nc1cccnc1)c1cccc2[nH]c(-c3cccc(-c4nnn[nH]4)c3)nc12` [Compound 362], the EC1.5 entry is “A (EC1.5<1.0 uM)” and the “Fold Act. (percent maximum fold activation)” value is on record as “A (Fold activation >200%)”.
For `O=C(Nc1cccc2[nH]c(-c3ccccc3C(F)(F)F)nc12)c1cscn1` [Compound 363], in that order: “B (EC1.5 1-25 uM)” and “A (Fold activation >200%)”.
For `O=C(Nc1cccc2[nH]c(-c3ccccc3C(F)(F)F)nc12)c1ccccn1` [Compound 364], in that order: “B (EC1.5 1-25 uM)” and “A (Fold activation >200%)”.
Take `O=C(Nc1cccc2[nH]c(-c3ccccc3C(F)(F)F)nc12)c1cccnc1` [Compound 365]: the EC1.5 result is recorded as “B (EC1.5 1-25 uM)” and the “Fold Act. (percent maximum fold activation)” value is on record as “A (Fold activation >200%)”.
Take `O=C(Nc1cccc2[nH]c(-c3ccccc3C(F)(F)F)nc12)c1cnccn1` [Compound 366]: the EC1.5 entry was “B (EC1.5 1-25 uM)” and the “Fold Act. (percent maximum fold activation)” value is on record as “A (Fold activation >200%)”.
As for `O=C(Nc1cccc2[nH]c(-c3cccc(N4CCOCC4)c3)nc12)c1ccccn1` [Compound 367], the EC1.5 result was “B (EC1.5 1-25 uM)” and the “Fold Act. (percent maximum fold activation)” value is “A (Fold activation >200%)”.
As for `Cc1nc(-c2ccccc2)c(-c2nc3c(C(=O)Nc4nccs4)cccc3[nH]2)s1` [Compound 368], the EC1.5 entry was “A (EC1.5<1.0 uM)” and the “Fold Act. (percent maximum fold activation)” value is “A (Fold activation >200%)”.
For `Cc1nc(-c2ccccc2)c(-c2nc3c(C(=O)Nc4ccccn4)cccc3[nH]2)s1` [Compound 369], the EC1.5 entry was “A (EC1.5<1.0 uM)” and the “Fold Act. (percent maximum fold activation)” value is given as “A (Fold activation >200%)”.
As to `Cc1nc(-c2ccccc2)c(-c2nc3c(C(=O)Nc4cccnc4)cccc3[nH]2)s1` [Compound 370], the EC1.5 result is “A (EC1.5<1.0 uM)” and the “Fold Act. (percent maximum fold activation)” value is listed as “A (Fold activation >200%)”.
For `CN1CCOc2cc(-c3nc4c(C(=O)Nc5nccs5)cccc4[nH]3)cnc21` [Compound 371], in that order: “A (EC1.5<1.0 uM)” and “A (Fold activation >200%)”.
With `CN1CCOc2cc(-c3nc4c(C(=O)Nc5cccnc5)cccc4[nH]3)cnc21` [Compound 372], the EC1.5 entry is on record as “A (EC1.5<1.0 uM)” and the “Fold Act. (percent maximum fold activation)” value is “A (Fold activation >200%)”.
For `O=C(Nc1cccnc1)c1cccc2[nH]c(-c3ccnc(N4CCCCC4)c3)nc12` [Compound 373], the EC1.5 entry is on record as “B (EC1.5 1-25 uM)” and the “Fold Act. (percent maximum fold activation)” value is on record as “A (Fold activation >200%)”.
In the case of `O=C(NC1CCOC1=O)c1cccc2[nH]c(-c3ccc(F)cc3C(F)(F)F)nc12` (stereo not shown) [Compound 374], the EC1.5 entry was “C (EC1.5 >25 uM)” and the “Fold Act. (percent maximum fold activation)” value was “B (Fold Activation <200%)”.
As to `Cc1cc(NC(=O)c2cccc3[nH]c(-c4ccc(F)cc4C(F)(F)F)nc23)n(C)n1` [Compound 375], the EC1.5 entry is listed as “A (EC1.5<1.0 uM)” and the “Fold Act. (percent maximum fold activation)” value is “A (Fold activation >200%)”.
With `Cc1cnc(NC(=O)c2cccc3[nH]c(-c4cc(F)ccc4C(F)(F)F)nc23)s1` [Compound 376], the EC1.5 entry was “A (EC1.5<1.0 uM)” and the “Fold Act. (percent maximum fold activation)” value was “A (Fold activation >200%)”.
`Cc1nc(NC(=O)c2cccc3[nH]c(-c4cc(F)ccc4C(F)(F)F)nc23)sc1C` [Compound 377]: the EC1.5 entry was “A (EC1.5<1.0 uM)” and the “Fold Act. (percent maximum fold activation)” value was “A (Fold activation >200%)”.
Consider `O=C(NC1CCOC1=O)c1cccc2[nH]c(-c3cc(F)ccc3C(F)(F)F)nc12` (stereo not shown) [Compound 378], for which the EC1.5 result is on record as “C (EC1.5 >25 uM)” and the “Fold Act. (percent maximum fold activation)” value is “B (Fold Activation <200%)”.
Take `Cc1cc(C)nc(NC(=O)c2cccc3[nH]c(-c4cc(F)ccc4C(F)(F)F)nc23)c1` [Compound 379]: the EC1.5 result is on record as “A (EC1.5<1.0 uM)” and the “Fold Act. (percent maximum fold activation)” value is “A (Fold activation >200%)”.
The like results for `Cc1cc(NC(=O)c2cccc3[nH]c(-c4cc(F)ccc4C(F)(F)F)nc23)n(C)n1` [Compound 380] were, in that order, “A (EC1.5<1.0 uM)” and “A (Fold activation >200%)”.
Consider `Cc1cnc(NC(=O)c2cccc3[nH]c(-c4ccnn4-c4ccccc4)nc23)s1` [Compound 381], for which the EC1.5 entry was “A (EC1.5<1.0 uM)” and the “Fold Act. (percent maximum fold activation)” value is “A (Fold activation >200%)”.
With `Cc1nc(NC(=O)c2cccc3[nH]c(-c4cccc(N5CCOCC5)c4)nc23)sc1C` [Compound 382], the EC1.5 entry is listed as “A (EC1.5<1.0 uM)” and the “Fold Act. (percent maximum fold activation)” value is given as “A (Fold activation >200%)”.
For `CC1(C)Cc2cccc(-c3nc4c(C(=O)Nc5nccs5)cccc4[nH]3)c2O1` [Compound 383], in that order: “B (EC1.5 1-25 uM)” and “B (Fold Activation <200%)”.
Regarding `O=C(Nc1cccc2[nH]c(-c3cc(F)ccc3C(F)(F)F)nc12)c1cscn1` [Compound 384], the EC1.5 result is listed as “B (EC1.5 1-25 uM)” and the “Fold Act. (percent maximum fold activation)” value is recorded as “A (Fold activation >200%)”.
`O=C(Nc1cccc2[nH]c(-c3cc(F)ccc3C(F)(F)F)nc12)c1ccccn1` [Compound 385]: the EC1.5 entry is on record as “B (EC1.5 1-25 uM)” and the “Fold Act. (percent maximum fold activation)” value was “A (Fold activation >200%)”.
As to `O=C(Nc1cccc2[nH]c(-c3cc(F)ccc3C(F)(F)F)nc12)c1cccnc1` [Compound 386], the EC1.5 entry is recorded as “B (EC1.5 1-25 uM)” and the “Fold Act. (percent maximum fold activation)” value was “A (Fold activation >200%)”.
`O=C(Nc1cccc2[nH]c(-c3cc(F)ccc3C(F)(F)F)nc12)c1cnccn1` [Compound 387]: the EC1.5 entry is “B (EC1.5 1-25 uM)” and the “Fold Act. (percent maximum fold activation)” value is “A (Fold activation >200%)”.
For the compound `O=C(Nc1cccc2[nH]c(-c3cccc(N4CCOCC4)c3)nc12)c1cnccn1` [Compound 388], the EC1.5 entry is reported as “B (EC1.5 1-25 uM)” and the “Fold Act. (percent maximum fold activation)” value is “A (Fold activation >200%)”.
